Here are results for eleven compounds from US8815852B2, “Carbamoyloxy arylalkan arylpiperazine analgesics” (SK Biopharmaceuticals Co., Ltd., priority 2007, dated 2014).

The ED50 is the midpoint of the dose-response relation.

The first experiment relates to male ICR mouse. Briefly: Acetic acid-induced writhing test in mouse. The experiment is classed as in vivo. Particulars: Mus musculus, po, 1 h, at 10 po (method: 10 mg/kg oral, 1 hour before acetic acid); read-out: AA Writhing: Suppression ratio of Pain response. As to the method: 2. Acetic Acid-Induced Writhing Test in Mouse
An acetic acid-induced writhing test is one of models for measuring an analgesic effect of drugs. A test material dissolved in a suitable vehicle was orally administered to a male ICR mouse weighing 30 to 35 g at an amount of 10 mg/kg. After 1 hour of the oral administration, […] of an aqueous 0.8% acetic acid solution was intraperitoneally injected into the male ICR mouse to induce the abdominal pain of the male ICR mouse. Right after the administration of acetic acid, the male ICR mouse was put into an empty cage, and the number of writhing behaviors of the mice was counted for 10 minutes. The term “writhing represents a reflex action in which the mouse overtly extends its abdomen by stretching its hind legs due to the abdominal pain. The analgesic effect of the test material is represented by the ‘suppression ratio of pain response’ {[(Writhing number of Vehicle-administered group−Writhing number of Test material-administered group)/(Writhing number of Vehicle-administered group)]×100%} or 50% of Effective amount (ED50 (median effective dose); an amount of test material that is required to suppress 50% of pain behaviors) of Test material. The ED50 (median effective dose) was determined by calculating the suppression ratio of pain response in at least three doses of test materials and subjecting to the linear regression.
Background: Writhing tests count abdominal constrictions after an irritant is injected.
For the compound `COc1ccc(N2CCN(CCC3OC(=O)Nc4ccccc43)CC2)cc1` (centres unmarked) [Example 107, 4-{2-[4-(4-methoxy-phenyl)-piperazin-1-yl]-ethyl}-1,4-dihydro-benzo[d][1,3]oxazin-2-one], the inhibition in vivo at 10 mg/kg amounted to 35%.

As for `COc1ccc(N2CCN(C(C)CC(OC(N)=O)c3ccccc3)CC2)cc1` (centres unmarked) [Example 108, Carbamic acid 3-[4-(4-methoxy-phenyl)-piperazin-1-yl]-1-phenyl-butyl ester], the inhibition in vivo at 10 mg/kg came to 83.5%.

As to `CC(CC(OC(N)=O)c1ccccc1)N1CCN(c2ccc(Cl)cc2)CC1` (centres unmarked) [Example 109, Carbamic acid 3-[4-(4-chloro-phenyl)-piperazin-1-yl]-1-phenyl-butyl ester], the inhibition in vivo at 10 mg/kg was determined as 84%.

For the compound `CC(CC(OC(N)=O)c1ccccc1)N1CCN(c2ccc([N+](=O)[O-])cc2)CC1` (centres unmarked) [Example 110, Carbamic acid 3-[4-(4-nitro-phenyl)-piperazin-1-yl]-1-phenyl-butyl ester], the inhibition in vivo at 10 mg/kg is 17%.

For the compound `Cc1ccc(N2CCN(C(C)CC(OC(N)=O)c3ccccc3)CC2)cc1C` (centres unmarked) [Example 111, Carbamic acid 3-[4-(3,4-dimethyl-phenyl)-piperazin-1-yl]-1-phenyl-butyl ester], the inhibition in vivo at 10 mg/kg stood at 95%.

Regarding `CC(CC(OC(N)=O)c1ccccc1)N1CCN(c2cnc3ccccc3n2)CC1` (centres unmarked) [Example 112], the inhibition in vivo at 10 mg/kg was found to be 72%.

Consider `COc1ccc(N2CCN(C(C)CC(OC(N)=O)c3ccccc3)CC2)cc1OC` (centres unmarked) [Example 113, Carbamic acid 3-[4-(3,4-dimethoxy-phenyl)-piperazin-1-yl]-1-phenyl-butyl ester], for which the inhibition in vivo at 10 mg/kg is 57%.

In the case of `CC(CC(OC(N)=O)c1ccccc1)N1CCN(c2ncc(Cl)cc2Cl)CC1` (centres unmarked) [Example 114], the inhibition in vivo at 10 mg/kg was 39%.

On to `CC(CC(OC(N)=O)c1ccccc1)N1CCN(c2ccc(Cl)c(Cl)c2)CC1` (centres unmarked) [Example 115, Carbamic acid 3-[4-(3,4-dichloro-phenyl)-piperazin-1-yl]-1-phenyl-butyl ester], for which the inhibition in vivo at 10 mg/kg came to 68%.

Regarding `CC(CC(OC(N)=O)c1ccccc1)N1CCN(c2ccc(F)cc2F)CC1` (centres unmarked) [Example 116, Carbamic acid 3-[4-(2,4-difluoro-phenyl)-piperazin-1-yl]-1-phenyl-butyl ester], the inhibition in vivo at 10 mg/kg turned out to be 87%.

The experiment is the same for the next values; noted with them: Mus musculus; po; unit not given (method doses in mg/kg); read-out: AA Writhing: ED50.
In the case of `NC(=O)OC(c1ccccc1)C(F)CN1CCN(c2ccccc2)CC1` (centres unmarked) [Example 117, Carbamic acid 2-fluoro-1-phenyl-3-(4-phenyl-piperazin-1-yl)-propyl ester], the median effective dose (ED50) was 32.2 mg/kg.
